Here are results for 18 compounds from US8048881B2, “Pyrimidine derivatives and their use as P2Y12 receptor antagonists” (Actelion Pharmaceuticals Ltd., priority 2005, dated 2011).

pIC50: −log10 of the molar value. Counter-ions that a name gives are not always drawn.

In the experiment the target is T1, human P2Y12 receptor (Homo sapiens, UniProt Q9H244).
T1 construct: expressed in transfected cells; host or cells: Chinese Hamster Ovary (CHO) cells
T1 sequence (Q9H244 whole entry): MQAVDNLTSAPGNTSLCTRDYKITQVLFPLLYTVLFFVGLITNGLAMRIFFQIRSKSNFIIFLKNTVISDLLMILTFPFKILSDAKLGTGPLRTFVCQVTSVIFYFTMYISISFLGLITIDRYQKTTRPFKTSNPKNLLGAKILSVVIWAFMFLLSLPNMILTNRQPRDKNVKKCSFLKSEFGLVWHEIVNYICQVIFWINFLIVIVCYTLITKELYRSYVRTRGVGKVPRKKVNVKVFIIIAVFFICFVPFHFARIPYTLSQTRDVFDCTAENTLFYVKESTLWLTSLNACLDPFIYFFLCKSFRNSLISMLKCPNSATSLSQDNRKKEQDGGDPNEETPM
The experiment can be described thus: P2Y12 receptor binding assay. The settings on record: CHO cells with recombinant expression of the human P2Y12 receptor; tritium-labeled 2-methyl-S-ADP; incubation at room temperature for 2 hours. Here is the method: P2Y12 Receptor Binding Assay
Chinese Hamster Ovary (CHO) cells with recombinant expression of the human P2Y12 receptor were cultured in 24 well cell-culture plates. Cells were washed three times with binding buffer (50 mM Tris pH 7.4, 100 mM NaCl, 1 mM EDTA, 0.5% BSA). The cells were then incubated with 0.5 ml per well binding buffer containing tritium-labeled 2-methyl-thio-adenosine 5′-diphosphate (2-methyl-S-ADP) (between 100'000 and 300'000 dpm per well) and various concentrations of test compounds. After incubation at room temperature for 2 hours, cells were washed three times with binding buffer. Then, cells were solubilized by addition of 0.5 ml solubilization buffer (SDS, NaOH, EDTA). The content of each well was then transferred into beta-counter vials and 2.0 ml of Ultima Gold Scintillation liquid was added.
The term pIC50 denotes the negative decadic logarithm of the IC50, by convention in mol/L. As for `CCOC(=O)N1CCN(C(=O)[C@H](CCC(=O)O)NC(=O)c2cc(N[C@H]3CC[C@H](O)CC3)nc(-c3ccccc3)n2)CC1` [Example 243, 4-((S)-4-carboxy-2-{[6-(trans-4-hydroxy-cyclohexylamino)-2-phenyl-pyrimidine-4-carbonyl]-amino}-butyryl)-piperazine-1-carboxylic acid ethyl ester], the pIC50 is 6.65.
For the compound `CCOC(=O)N1CCN(C(=O)[C@H](CCC(=O)O)NC(=O)c2cc(C#CC(O)CC)nc(-c3ccccc3)n2)CC1` (stereo partly drawn) [Example 261, 4-((S)-4-carboxy-2-{[6-(3-hydroxy-pent-1-ynyl)-2-phenyl-pyrimidine-4-carbonyl]-amino}-butyryl)-piperazine-1-carboxylic acid ethyl ester], the pIC50 is 6.90.
With `CCOC(=O)N1CCN(C(=O)C(Cc2cccc(OCC(=O)O)c2)NC(=O)c2cc(OC3CCCC3)nc(-c3ccccc3)n2)CC1` (stereo not drawn) [Example 31, 4-{3-(3-carboxymethoxy-phenyl)-2-[(6-cyclopentyloxy-2-phenyl-pyrimidine-4-carbonyl)-amino]-propionyl}-piperazine-1-carboxylic acid ethyl ester] the figure was 6.23.
In the case of `CCOC(=O)N1CCN(C(=O)[C@H](CCc2nnn[nH]2)NC(=O)c2cc(OC3CCCC3)nc(-c3ccccc3)n2)CC1` [Example 19, 4-[(S)-2-[(6-cyclopentyloxy-2-phenyl-pyrimidine-4-carbonyl)-amino]-4-(1H-tetrazol-5-yl)-butyryl]-piperazine-1-carboxylic acid ethyl ester], the pIC50 is 6.90.
As for `CC(C)OC(=O)N1CCN(C(=O)[C@H](CCC(=O)O)NC(=O)c2cc(OC3CCCC3)nc(-c3ccccc3)n2)CC1` [Example 38, 4-{(S)-4-carboxy-2-[(6-cyclopentyloxy-2-phenyl-pyrimidine-4-carbonyl)-amino]-butyryl}-piperazine-1-carboxylic acid isopropyl ester], the pIC50 is 7.02.
For the compound `CCOC(=O)N1CCN(C(=O)[C@H](CCC(=O)O)NC(=O)c2cc(C(C)=O)nc(-c3ccccc3)n2)CC1` [Example 402, 4-{(S)-2-[(6-acetyl-2-phenyl-pyrimidine-4-carbonyl)-amino]-4-carboxy-butyryl}-piperazine-1-carboxylic acid ethyl ester], the pIC50 is 7.14.
For `CCOC(=O)N1CCN(C(=O)[C@H](CCC(=O)O)NC(=O)c2cc(C)nc(-c3cccc(C)c3)n2)CC1` [Example 105, 4-{(S)-4-carboxy-2-[(6-methyl-2-m-tolyl-pyrimidine-4-carbonyl)-amino]-butyryl}-piperazine-1-carboxylic acid ethyl ester] the value was 6.03; for `CCOC(=O)CCNc1cc(C(=O)N[C@@H](CCC(=O)O)C(=O)N2CCN(C(=O)OCC)CC2)nc(-c2ccccc2)n1` [Example 59, 4-((S)-4-carboxy-2-{[6-(2-ethoxycarbonyl-ethylamino)-2-phenyl-pyrimidine-4-carbonyl]-amino}-butyryl)-piperazine-1-carboxylic acid ethyl ester triflate salt], 6.56.
Regarding `CCOC(=O)N1CCN(C(=O)[C@H](CCC(=O)O)NC(=O)c2cc(-c3cn[nH]c3)nc(-c3ccccc3)n2)CC1` [Example 396, 4-((S)-4-carboxy-2-{[2-phenyl-6-(1H-pyrazol-4-yl)-pyrimidine-4-carbonyl]-amino}-butyryl)-piperazine-1-carboxylic acid ethyl ester], the pIC50 is 7.14.
With `CCOC(=O)N1CCN(C(=O)[C@H](Cc2ccc(C(=O)O)cc2)NC(=O)c2cc(NC(C)C)nc(-c3ccccc3)n2)CC1` [Example 115, 4-{(S)-3-(4-carboxy-phenyl)-2-[(6-isopropylamino-2-phenyl-pyrimidine-4-carbonyl)-amino]-propionyl}-piperazine-1-carboxylic acid ethyl ester], the pIC50 is 6.41.
With `CCOC(=O)N1CCN(C(=O)[C@H](CCC(=O)O)NC(=O)c2cc(CN(C)Cc3ccccc3)nc(-c3ccccc3)n2)CC1` [Example 362, 4-[(S)-2-({6-[(benzyl-methyl-amino)-methyl]-2-phenyl-pyrimidine-4-carbonyl}-amino)-4-carboxy-butyryl]-piperazine-1-carboxylic acid ethyl ester] the figure was 7.07; with `CCOC(=O)N1CCN(C(=O)[C@H](CCC(=O)O)NC(=O)c2cc(-c3cccc(C)c3)nc(-c3ccccc3)n2)CC1` [Example 94, 4-{(S)-4-carboxy-2-[(2-phenyl-6-m-tolyl-pyrimidine-4-carbonyl)-amino]-butyryl}-piperazine-1-carboxylic acid ethyl ester], 6.70.
With `CCOC(=O)N1CCN(C(=O)[C@H](CCC(=O)O)NC(=O)c2cc(OC3CCCC3)nc(-c3ccccc3)n2)CC1C` (stereo partly drawn) [Example 46, 4-{(S)-4-carboxy-2-[(6-cyclopentyloxy-2-phenyl-pyrimidine-4-carbonyl)-amino]-butyryl}-2-methyl-piperazine-1-carboxylic acid ethyl ester] the figure was 6.29; with `CCOC(=O)N1CCN(C(=O)[C@H](CCC(=O)O)NC(=O)c2cc(-c3ccc[n+]([O-])c3)nc(-c3ccccc3)n2)CC1` [Example 418, 4-((S)-4-carboxy-2-{[6-(1-oxy-pyridin-3-yl)-2-phenyl-pyrimidine-4-carbonyl]-amino}-butyryl)-piperazine-1-carboxylic acid ethyl ester], 6.89; with `CC(C)(C)NC(=O)N1CCN(C(=O)[C@H](CCC(=O)O)NC(=O)c2cc(OC3CCCC3)nc(-c3ccccc3)n2)CC1` [Example 435, (S)-5-(4-tert-butylcarbamoyl-piperazin-1-yl)-4-[(6-cyclopentyloxy-2-phenyl-pyrimidine-4-carbonyl)-amino]-5-oxo-pentanoic acid], 7.03.
As to `CCOC(=O)N1CCN(C(=O)[C@H](CCC(=O)O)NC(=O)c2cc(OCC3CC3)nc(-c3ccccc3)n2)CC1` [Example 27, 4-{(S)-4-carboxy-2-[(6-cyclopropylmethoxy-2-phenyl-pyrimidine-4-carbonyl)-amino]-butyryl}-piperazine-1-carboxylic acid ethyl ester], the pIC50 is 6.71.
For `CCOC(=O)N1CCN(C(=O)[C@H](CCC(=O)O)NC(=O)c2cc(/C=C/C(C)O)nc(-c3ccccc3)n2)CC1` (stereo partly drawn) [Example 267, 4-((S)-4-carboxy-2-{[6-((E)-3-hydroxy-but-1-enyl)-2-phenyl-pyrimidine-4-carbonyl]-amino}-butyryl)-piperazine-1-carboxylic acid ethyl ester] the value was 6.67; for `CCOC(=O)N1CCN(C(=O)[C@H](CCC(=O)O)NC(=O)c2cc(OC3CCCC3)nc(-c3ccccc3)n2)CC1` [Example 1, 4-{(S)-4-carboxy-2-[(6-cyclopentyloxy-2-phenyl-pyrimidine-4-carbonyl)-amino]-butyryl}-piperazine-1-carboxylic acid ethyl ester], 6.93.
